Our source for the anti-viral activity and stability values is patent US10385067B2, “Sodium (2R,5S,13aR)-7,9-dioxo-10-((2,4,6-trifluorobenzyl)carbamoyl)-2,3,4,5,7,9,13,13a-octahydro-2,5-methanopyrido[1′,2′:4,5]pyrazino[2,1-b][1,3]oxazepin-8-olate” (Gilead Sciences, Inc., priority 2014, dated 2019).

For one series, the system named is HIV. Particulars: as discussed in co-pending U.S. Ser. No. 14/133,855 and PCT US2013/076367; cited from earlier work.
A short description of series [1]: Stability on storage under accelerated conditions. The format is physicochemical. As to conditions: after four weeks of storage under accelerated conditions. How it is done: The stability of sodium (2R,5S,13aR)-7,9-dioxo-10-((2,4,6-trifluorobenzyl)carbamoyl)-2,3,4,5,7,9,13,13a-octahydro-2,5-methanopyrido[1′,2′:4,5]pyrazino[2,1-b][1,3]oxazepin-8-olate Form I was tested. […] In Table 5, AN refers to area normalization and is the relative peak area of the active with respect to other impurities and components contained in the sample. LS refers to labile strength and is the amount of active present relative to the theoretical amount.

For `O=C(NCc1c(F)cc(F)cc1F)c1cn2c(c(O)c1=O)C(=O)N1[C@H]3CC[C@H](C3)O[C@@H]1C2` [Formula I, (2R,5S,13aR)-8-hydroxy-7,9-dioxo-N-(2,4,6-trifluorobenzyl)-2,3,4,5,7,9,13,13a-octahydro-2,5-methanopyrido[1′,2′:4,5]pyrazino[2,1-b][1,3]oxazepine-10-carboxamide], the anti-viral activity result in the series on HIV is reported as “demonstrates anti-viral activity”. With `O=C(NCc1c(F)cc(F)cc1F)c1cn2c(c([O-])c1=O)C(=O)N1[C@H]3CC[C@H](C3)O[C@@H]1C2.[Na+]` [Formula II Form I, sodium (2R,5S,13aR)-7,9-dioxo-10-((2,4,6-trifluorobenzyl)carbamoyl)-2,3,4,5,7,9,13,13a-octahydro-2,5-methanopyrido[1′,2′:4,5]pyrazino[2,1-b][1,3]oxazepin-8-olate], the stability entry in series [1] was “stable”.
